From patent US20070254312A1, “Protein Kinase Inhibitors and Methods for Identiying Same” (priority 2004, published 2007)
Starred links: 1 amine or outer side, 2 acyl side, 3 side chain; linkers in the order of their positions; H or OH if unused. Non-standard residues stand in square brackets, D forms with d. Residues, ends and D or L forms follow the SMILES beside them. *: point of attachment. Benzoyl(4-(pyrrol-1-yl)) = O=C(c1ccc(-n2cccc2)cc1)*; Phenylacetyl(3,4-Cl2) = O=C(Cc1ccc(Cl)c(Cl)c1)*; Cysteamide = C(CS[*:3])N[*:1]; Dap = NC[C@H](N)C(=O)O

How the values were obtained:
PKCγ = PKCγ (Homo sapiens, UniProt P05129); experiment: PKC isoform assay, Example 1; format: biochemical; parameters: purchased Pan Vera
Experimental: (§1) Protein Kinase C Assay (general). The peptides […] (for PKC α, β and γ) and acetyl-[…] (for PKC ε and ζ) were used as substrates. […] Total reaction volume was 50 μL. […] Following an additional 5 min incubation at ambient temperature, 75 μL from each reaction well was transferred into each well of a Unifilter (P81 cellulose phosphate paper) assay plate and washed four times with 0.1% phosphoric acid in water. […] IC50 values were calculated using GraFit (Erithacus Software Limited) and Ki values were calculated using Enzyme Kinetics, SigmaPlot (SPSS Inc.)

PKCτ = target: T1, PKCτ (Homo sapiens, UniProt P41743); experiment: PKC isoform assay, Example 1; format: biochemical
T1 construct: purchased Pan Vera
T1 sequence (P41743 1-596): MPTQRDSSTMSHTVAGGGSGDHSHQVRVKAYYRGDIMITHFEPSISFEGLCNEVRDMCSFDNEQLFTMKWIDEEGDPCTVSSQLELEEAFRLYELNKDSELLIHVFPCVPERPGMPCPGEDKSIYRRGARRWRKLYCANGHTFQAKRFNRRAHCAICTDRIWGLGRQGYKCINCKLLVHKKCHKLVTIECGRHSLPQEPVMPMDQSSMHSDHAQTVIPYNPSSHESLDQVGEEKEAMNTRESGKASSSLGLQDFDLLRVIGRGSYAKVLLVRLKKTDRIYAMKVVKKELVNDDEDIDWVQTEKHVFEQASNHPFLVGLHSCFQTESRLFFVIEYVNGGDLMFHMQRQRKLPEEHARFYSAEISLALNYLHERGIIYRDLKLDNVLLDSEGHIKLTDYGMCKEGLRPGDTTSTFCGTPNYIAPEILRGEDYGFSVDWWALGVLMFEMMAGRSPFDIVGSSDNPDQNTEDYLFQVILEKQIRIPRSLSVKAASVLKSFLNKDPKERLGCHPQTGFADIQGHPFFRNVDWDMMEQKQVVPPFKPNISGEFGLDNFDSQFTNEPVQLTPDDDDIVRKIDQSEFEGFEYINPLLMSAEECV
Text: (§2) Protein Kinase C Assay (general). The peptides Ac-Ser-Phe-Arg-Arg-Arg-NH2 (for PKC α, β and γ) and acetyl-[…]NH2 (for PKC ε and ζ) were used as substrates.

PKCδ [1] = target: T2, PKCδ (Homo sapiens, UniProt Q05655); parameters: purchased Panvera; settings: literature values; relative to most potently inhibited isoform (=1); cited from earlier work
PKCα = PKCα (Homo sapiens, UniProt P17252); experiment: Protein Kinase Cα radioactive assay, peptide substrate Ac-Ser-Phe-Arg-Arg-Arg-NH2 (Example 1); format: biochemical; parameters: purchased Pan Vera; settings: versus variable peptide substrate
Experimental: as §1, with “Inc.) […] An analogous protocol was employed for peptide 4 versus variable [[…]]. […] An analogous protocol was employed for peptide 4 versus variable [ATP]. Protein Kinase Cα Assay (Ki determination for peptide 6 versus variable […] substrate). […] The reaction was initiated as described above. […] Following an additional 5 min incubation at ambient temperature, 75 μL from each reaction well was transferred into each well of a Unifilter (P81 cellulose phosphate paper) assay plate and washed four times with 0.1% phosphoric acid in water. […] IC50 values were calculated using GraFit (Erithacus Software Limited) and Ki values were calculated using Enzyme Kinetics, SigmaPlot (SPSS Inc.)” for “Inc.)”

PKCδ [2] = target: T2, PKCδ; experiment: PKC isoform assay, Example 1; format: biochemical; parameters: purchased Pan Vera
Text: as §2

PKCη = PKCη (Homo sapiens, UniProt P24723); experiment: PKC isoform assay, Example 1; format: biochemical; parameters: purchased Pan Vera
Text: as §2

PKCθ = PKCθ (Homo sapiens, UniProt Q04759); experiment: PKC isoform assay, Example 1; format: biochemical; parameters: purchased Pan Vera
Text: as §2

PKC ι = target: T3, PKC ι (Homo sapiens, UniProt P41743); settings: literature values; relative to most potently inhibited isoform (=1); cited from earlier work
T3 construct: purchased Panvera
T3 sequence (P41743 1-596): T1 sequence (P41743 1-596)

T2 sequence (Q05655 whole entry, canonical isoform): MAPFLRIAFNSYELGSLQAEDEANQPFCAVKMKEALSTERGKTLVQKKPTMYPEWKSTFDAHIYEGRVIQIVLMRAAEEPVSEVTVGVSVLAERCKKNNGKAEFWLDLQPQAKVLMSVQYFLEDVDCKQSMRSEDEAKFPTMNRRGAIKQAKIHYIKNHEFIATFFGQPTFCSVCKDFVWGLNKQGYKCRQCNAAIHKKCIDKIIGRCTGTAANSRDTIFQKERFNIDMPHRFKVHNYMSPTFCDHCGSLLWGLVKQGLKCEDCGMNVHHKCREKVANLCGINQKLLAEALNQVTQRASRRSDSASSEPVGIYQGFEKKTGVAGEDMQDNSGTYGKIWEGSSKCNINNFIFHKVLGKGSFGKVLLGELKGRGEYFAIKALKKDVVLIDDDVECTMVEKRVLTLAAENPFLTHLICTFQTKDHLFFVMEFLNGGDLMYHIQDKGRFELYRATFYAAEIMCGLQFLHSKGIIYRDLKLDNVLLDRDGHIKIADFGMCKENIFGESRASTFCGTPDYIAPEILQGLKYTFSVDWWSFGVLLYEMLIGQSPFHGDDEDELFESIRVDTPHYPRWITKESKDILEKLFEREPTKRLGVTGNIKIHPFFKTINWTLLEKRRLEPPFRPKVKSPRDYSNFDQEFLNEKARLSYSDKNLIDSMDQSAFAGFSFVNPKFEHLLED
Sequence of PKCθ (Q04759 whole entry, canonical isoform): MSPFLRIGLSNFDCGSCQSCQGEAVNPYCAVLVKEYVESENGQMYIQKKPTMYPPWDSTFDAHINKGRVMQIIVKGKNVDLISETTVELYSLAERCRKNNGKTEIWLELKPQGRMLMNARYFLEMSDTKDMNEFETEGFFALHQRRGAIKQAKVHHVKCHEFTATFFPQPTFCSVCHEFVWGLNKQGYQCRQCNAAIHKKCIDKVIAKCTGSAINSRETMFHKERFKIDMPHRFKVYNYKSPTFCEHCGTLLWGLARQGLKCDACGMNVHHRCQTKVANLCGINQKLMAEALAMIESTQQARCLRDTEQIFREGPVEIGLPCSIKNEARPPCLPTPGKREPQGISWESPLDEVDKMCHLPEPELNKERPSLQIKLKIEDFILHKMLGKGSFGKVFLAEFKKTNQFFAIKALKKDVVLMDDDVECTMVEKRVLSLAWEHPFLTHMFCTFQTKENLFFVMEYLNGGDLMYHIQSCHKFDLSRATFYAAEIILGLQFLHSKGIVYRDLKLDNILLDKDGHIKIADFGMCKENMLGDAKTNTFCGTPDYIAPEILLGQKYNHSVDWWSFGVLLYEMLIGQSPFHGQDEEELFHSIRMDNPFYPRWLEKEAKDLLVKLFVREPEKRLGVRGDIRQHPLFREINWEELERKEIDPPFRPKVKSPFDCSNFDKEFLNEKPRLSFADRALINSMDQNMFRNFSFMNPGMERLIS
Sequence of PKCη (P24723 whole entry, canonical isoform): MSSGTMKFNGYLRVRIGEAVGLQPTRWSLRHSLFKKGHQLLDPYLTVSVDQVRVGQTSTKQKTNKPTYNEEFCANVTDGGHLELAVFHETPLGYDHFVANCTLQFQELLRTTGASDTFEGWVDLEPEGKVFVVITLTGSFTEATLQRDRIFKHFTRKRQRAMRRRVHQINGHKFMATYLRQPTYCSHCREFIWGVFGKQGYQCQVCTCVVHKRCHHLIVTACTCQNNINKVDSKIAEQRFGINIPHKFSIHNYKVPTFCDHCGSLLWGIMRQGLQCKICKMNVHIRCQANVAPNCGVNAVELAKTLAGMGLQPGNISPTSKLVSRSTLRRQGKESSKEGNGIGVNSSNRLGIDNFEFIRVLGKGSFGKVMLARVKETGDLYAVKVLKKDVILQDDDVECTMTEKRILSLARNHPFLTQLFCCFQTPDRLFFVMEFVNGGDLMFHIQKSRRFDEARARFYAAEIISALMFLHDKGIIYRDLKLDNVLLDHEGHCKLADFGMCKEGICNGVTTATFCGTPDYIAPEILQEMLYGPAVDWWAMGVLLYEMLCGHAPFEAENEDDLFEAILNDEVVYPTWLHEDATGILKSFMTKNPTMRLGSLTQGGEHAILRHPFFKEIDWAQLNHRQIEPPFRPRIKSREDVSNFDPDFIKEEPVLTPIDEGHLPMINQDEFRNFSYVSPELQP

CC(C)C[C@H](NC(=O)[C@H](C)NC(=O)CNC(=O)[C@H](CCCNC(=N)N)NC(=O)[C@H](CCCNC(=N)N)NC(=O)[C@H](C)NC(=O)Cc1ccc(Cl)c(Cl)c1)C(=O)N[C@@H](CCCNC(=N)N)C(=O)N[C@@H](CNC(=O)c1ccc(-n2cccc2)cc1)C(=O)N[C@@H](C)C(=O)NCCS [Compound 6] ({Phenylacetyl(3,4-Cl2)}-ARRGALR[Dap](Benzoyl(4-(pyrrol-1-yl)))A-Cysteamide)
selectivity for PKCα versus PKCγ (PKCγ): 580 fold | selectivity for PKCα versus PKCτ (PKCτ): 940 fold | Fold selectivity (IC50), PKC δ (PKCδ [1]): 2730 fold | Ki (PKCα): 0.8 nM | selectivity for PKCα versus PKCδ (PKCδ [2]): 2730 fold | selectivity for PKCα versus PKCη (PKCη): 1310 fold | selectivity for PKCα versus PKCθ (PKCθ): 1210 fold | Fold selectivity (IC50), PKC ι (PKC ι): 940 fold
